Assay results taken from patent US20250114313A1, “OLIGO-BENZAMIDE ANALOGS AND THEIR USE IN CANCER TREATMENT” (BOARD OF REGENTS, THE UNIVERSITY OF TEXAS SYSTEM, priority 2022, published 2025).

Tests used:
four distinct TNBC PDXs = assay: TNBC PDXs in mammary fat pad; type: in vivo, mice; details: daily oral, 10 mg/kg/day
Experimental: (§1) Animal Studies: All animal experiments were performed using UTHSA and UTSW IACUC approved protocols. For cell based xenograft tumor assays, TNBC cells (2×10^5-2×10^6) were mixed with an equal volume of matrigel and implanted in the mammary fat pads of 6-week-old female athymic nude mice as described^33. BALB/c mice were used for D2A1 syngeneic model. Once tumors reached measurable size, mice were divided into control (vehicle) and ERX-41 (10 mg/kg/oral) treatment groups. Mice bearing TNBC PDX tumors were purchased from Jackson laboratory (TM00089; TM00096; TM00098). TNBC PDX line UTPDX0001 establishment was earlier described^38. WHIM-20 ER+PDX model was purchased from Horizon Labs. OCa-PDX-38 was received from UTHSA ObGyn tissue procurement core. When tumors reached ˜750 mm^3 they were dissected into 2 mm^3 pieces and implanted into the mammary fat pads of 6 weeks old female SCID or NSG mice. When the tumor volume reached ˜200 mm^3, mice were randomized for treatment. The mice were monitored daily for adverse toxic effects and tumor volume was measured every 3-4 days using calipers. For establishing ES2 tumors, ES2/GFP/LUC cells were injected i.p. and tumors were measured twice a week using Xenogen in vivo imaging system. […] The mice were monitored daily for adverse toxic effects. […] The sections were scored by two independent evaluators blinded to the patient's clinical status.

[1] = system: MDA-MB-231 TNBC xenografts; assay: MDA-MB-231 TNBC xenografts, ERX-41; type: in vivo; details: oral, 10 mg/kg/day
Experimental: Animal Studies: All animal experiments were performed using UTHSA and UTSW IACUC approved protocols. For cell based xenograft tumor assays, TNBC cells (2×10^5-2×10^6) were mixed with an equal volume of matrigel and implanted in the mammary fat pads of 6-week-old female athymic nude mice as described^33. BALB/c mice were used for D2A1 syngeneic model. Once tumors reached measurable size, mice were divided into control (vehicle) and ERX-41 (10 mg/kg/oral) treatment groups. Mice bearing TNBC PDX tumors were purchased from Jackson laboratory (TM00089; TM00096; TM00098). TNBC PDX line UTPDX0001 establishment was earlier described^38. WHIM-20 ER+PDX model was purchased from Horizon Labs. OCa-PDX-38 was received from UTHSA ObGyn tissue procurement core. When tumors reached ˜750 mm^3 they were dissected into 2 mm^3 pieces and implanted into the mammary fat pads of 6 weeks old female SCID or NSG mice. When the tumor volume reached ˜200 mm^3, mice were randomized for treatment. The mice were monitored daily for adverse toxic effects and tumor volume was measured every 3-4 days using calipers. For establishing ES2 tumors, ES2/GFP/LUC cells were injected i.p. and tumors were measured twice a week using Xenogen in vivo imaging system. At the end of each experiment, the mice were euthanized, and the tumors were removed, weighed and processed for histological studies and protein analysis. Dose were selected based on pilot MTD study of 10, 50 100 mg/kg of ERX-41 for 14 days using C57BL6 mice. The mice were monitored daily for adverse toxic effects. IHC analysis was conducted as described previously^39 and immunoreactivity was visualized using DAB substrate and counterstained with hematoxylin (Vector Laboratories Inc. Burlingame, CA). Control rabbit IgG staining was used as a negative control. The sections were scored by two independent evaluators blinded to the patient's clinical status.

[2] = system: MDA-MB-231 cells with LIPA KO; assay: CellTiter-Glo response of MDA-MB-231 knockout clones; type: cell-based, Human
Experimental: (§2) Cell viability assays: Cells were seeded in 96-well plates (2×10^3 cells/well) one day before the treatment. Cells were treated with varying concentrations of ERX-41 or ERX-11 analogs for 3-6 days. Then effects of ERX-41 or ERX-11 analogs on cell viability were measured in triplicate or sextuplicate with multiple biological replicates using the WST-1 (Promega), MTT as previously described^33 or CellTiter-Glo 2.0 (Promega) assays.
CRISPR Screen: Human Brunello CRISPR knockout pooled library was purchased from Addgene (Addgene #73178) (via David Root and John Doench). The library containing lentivirus was transduced into cells in biological replicates or triplicates at a multiplicity of infection (MOI) of ˜0.5 and a minimum of 500× coverage. Two days later after transduction, uninfected cells were removed with puromycin selection. The library containing cells was treated with vehicle or ERX-41 for 2 weeks. Genomic DNA was extracted from same number of cells. The sgRNA cassette retrieved by PCR, followed by Next Generation Sequencing (NGS). NGS data was analyzed by MAGeCK (Li et al., Genome Biology, 2014 PMID: 25476604).
Lentiviral constructs cloning: LentiCRISPRv2 vector was used for CRSPR KO experiments. sgRNAs, which were chosen from human CRISPR knockout pooled library, were cloned into lentiCRISPRv2 vector^34. […]

[3] = system: ovarian cancer cell line xenograft (ES2); assay: Ovarian cancer cell line xenograft ES2; type: in vivo, mice; details: 10 mg/kg/day i.p.
Experimental: as §1

HMEC cells = assay: Western blotting (UPR proteins, puromycin labeled nascent proteins), HMEC; type: cell-based, human; details: 1 μM
[4] = system: SUM-159 cells with LIPA KO; assay: CellTiter-Glo, SUM-159 LIPA KO cells; type: cell-based; details: Homo sapiens, SUM159; SUM-159 stably transfected mCherry-RAMP4, CellTiter-Glo
Experimental: as §2
Lentiviral constructs cloning: LentiCRISPRv2 vector was used for CRSPR KO experiments. sgRNAs, which were chosen from human CRISPR knockout pooled library, were cloned into lentiCRISPRv2 vector^34. Human LIPA cDNA (GenBank: BC012287) or mouse LIPA cDNA (NM_021460) were clone into pWPI for over expression experiments. For TurboID experiment, the LIPA-TurboID sequence was cloned into pCW57-MCS1-2A-MCS2 vector. LentiCRISPR v2 was purchased from Addgene (Addgene #52961; //n2t.net/addgene:52961; RRID:Addgene_52961) (via Feng Zhang). pWPI was purchased from Addgene (Addgene #12254; //n2t.net/addgene:12254; RRID:Addgene_12254) (via Didier Trono). pCW57-MCS1-2A-MCS2 was purchased from Addgene (#71782) (via Adam Karpf). Human LIPA gene is referred as LIPA, while mouse LIPA gene is referred as mLIPA in this disclosure. […]

[5] = system: ERα+ breast PDX (WHIM-20); assay: ERα+ breast PDX WHIM-20; type: in vivo, NSG mice; details: 10 mg/kg daily
Experimental: as §1

[6] = system: SUM-159 cells with LIPA-KO reconstituted with LIPA constructs; assay: Response of SUM-159 LIPA KO cells reconstituted with LIPA constructs (CellTiter-Glo, western, RT-qPCR); type: cell-based, Human
Experimental: as §2
Lentiviral constructs cloning: LentiCRISPRv2 vector was used for CRSPR KO experiments. sgRNAs, which were chosen from human CRISPR knockout pooled library, were cloned into lentiCRISPRv2 vector^34. Human LIPA cDNA (GenBank: BC012287) or mouse LIPA cDNA (NM_021460) were clone into pWPI for over expression experiments. For TurboID experiment, the LIPA-TurboID sequence was cloned into pCW57-MCS1-2A-MCS2 vector. LentiCRISPR v2 was purchased from Addgene (Addgene #52961; //n2t.net/addgene:52961; RRID:Addgene_52961) (via Feng Zhang). pWPI was purchased from Addgene (Addgene #12254; //n2t.net/addgene:12254; RRID:Addgene_12254) (via Didier Trono). pCW57-MCS1-2A-MCS2 was purchased from Addgene (#71782) (via Adam Karpf). Human LIPA gene is referred as LIPA, while mouse LIPA gene is referred as mLIPA in this disclosure. Since LIPA overexpression was introduced in LIPA CRISPR KO background, to avoid being targeted by CRISPR-cas9, the LIPA sgRNA target sequence including PAM, tt aac cga att cct cat ggg agg, was mutated to tt aac cga att cct caC ggA agA in all of the LIPA overexpression constructs without protein coding change. In-Fusion Cloning kit (Takara) was used to generate different mutants of LIPA.
Western blotting: Whole cell lysates from breast cancer cells were prepared with 2× sample buffer (60 mM Tris-HCl, pH 6.8, 2% sodium dodecyl sulfate, 10% glycerol), and before loading mixed with loading buffer (5% 2-mercaptoethanol, 0.1% bromophenol blue) and boiled for denaturation, as previously described.^33 Proteins were separated by SDS-PAGE and subjected to Western analysis using antibodies. To detect nascent translated proteins, puromycin (final concentration 10 μg/mL) was added into cell plates 30 minutes before harvesting cells. Then samples were subjected to the Western blotting. Nascent proteins were detected by anti-puromycin antibody.
Real-time quantitative PCR (RT-qPCR): Total RNA was prepared from breast cancer cells using the RNeasy Mini Kit (Qiagen) according to the manufacturer protocols. Subsequently, total RNAs were reverse transcribed into cDNA using iScript Reverse Transcription Supermix (Bio-rad) and by using SYBR Green on an Illumina Real-Time PCR system.

[7] = system: ovarian cancer PDX (OCa-PDX-38); assay: Ovarian cancer PDX OCa-PDX-38; type: in vivo, NSG mice; details: 10 mg/kg daily
Experimental: as §1

SMILES: CC(C)COc1cc(C(=O)Nc2ccc(C(=O)N[C@H]3CC[C@H](C)CC3)cc2OCC(C)C)ccc1NC(=O)c1ccc([N+](=O)[O-])c(OCCO)c1 [ERX-41]
- rates of growth of PDX tumors (four distinct TNBC PDXs): significantly decreased the rates of growth of the tumors
- extirpated tumor weights and sizes at end of study [1]: decreased tumor growth
- growth of established xenografts [1]: significantly decreased the growth
- overt toxicity, body weights of treated mice [1]: no alterations in body weights
- effect of LIPA knockout on cytotoxic response [2]: abrogate the cytotoxic response to ERX-41
- activity against ES2 xenograft [3]: has activity against
- global de novo protein synthesis in HMEC (HMEC cells): not HMEC cells
- induction of ER stress / UPR proteins in HMEC (HMEC cells): not in HMEC cells
- IC50 [4]: ~4000 nM
- activity against WHIM-20 PDX [5]: has activity against
- responsiveness with mouse LXXLL sequence or mouse LIPA cDNA ([6]; ER stress and cell death): restore responsiveness
- IC50 ([6]; Homo sapiens, SUM159, SUM-159 LIPA-KO + WT-LIPA, read-out: IC50 after reconstitution of WT-LIPA (KO+WT)): 250 nM
- proliferation and ER stress with LXXLL point mutants ([6]; KO+L242P, KO+L239P/L242P, KO+L239P/L242P/L243P): inability of ERX-41 to affect proliferation or induce ER stress
- sensitivity after reconstitution of ΔLXXLL MT-LIPA (KO+ΔLXXLL) ([6]; lipase-competent mutant): did not restore sensitivity to ERX-41
- sensitivity after reconstitution of H274Y MT-LIPA (KO+H274Y) ([6]; lipase-incompetent mutant): restored sensitivity to ERX-41
- ER stress and proliferation with LIPA with added KDEL sequence ([6]; localized to the ER): restores the ability of ERX-41 to cause ER stress
- ER stress and proliferation with LIPA lacking the signal peptide ([6]; not localized to the ER): nor restore the ability of ERX-41 to cause ER stress
- activity against OCa-PDX-38 [7]: has activity against
